# According to patent US20240424053A1, “METHODS AND COMPOSITIONS FOR PROVIDING MYOCARDIAL PROTECTION AND TREATING MYOCARDIAL STRESS AND FIBROSIS” (Tufts Medical Center, Inc., priority 2021, published 2024):
# Where a SMILES comes first, the peptide text is derived from it. The star is where a group is joined. Palmitoyl = CCCCCCCCCCCCCCCC(=O)*
# What was measured:
# PAR1 [1] = biological target: T1, PAR1 (Mus musculus, UniProt P30558); assay: thoracic aortic constriction (TAC) LV pressure overload model of HFrEF in mice; format: in vivo
# T1 construct: endogenous in cells; host or cells: male C57BL/6N mice, in vivo
# T1 sequence (P30558 22-430): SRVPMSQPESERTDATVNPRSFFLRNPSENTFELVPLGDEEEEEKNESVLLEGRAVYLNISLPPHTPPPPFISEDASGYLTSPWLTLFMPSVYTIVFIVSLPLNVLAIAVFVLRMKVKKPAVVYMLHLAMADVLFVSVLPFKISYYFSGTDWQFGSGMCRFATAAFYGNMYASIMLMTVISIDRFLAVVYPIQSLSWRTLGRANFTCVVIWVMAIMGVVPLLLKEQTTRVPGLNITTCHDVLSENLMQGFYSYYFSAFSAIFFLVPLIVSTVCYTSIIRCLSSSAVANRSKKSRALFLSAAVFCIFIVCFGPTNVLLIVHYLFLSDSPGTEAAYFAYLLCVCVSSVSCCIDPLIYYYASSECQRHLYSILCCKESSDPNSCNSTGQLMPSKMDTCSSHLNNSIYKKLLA
# Method: Male C57BL/6N mice were treated daily for 7 weeks with vehicle or 10 mg/kg PZ-128 sc following 25G transaortic constriction (TAC) or sham surgery (Richards et al., Scientific Reports 9(1):5844, 2019) (n=5-7). (FIG. 4A) Photomicrographs of interstitial fibrosis in cardiac sections stained with sirius red from Sham and TAC animals treated with Veh or PZ-128. (FIG. 4B) Interstitial collagen area from animals in A was quantified along with (FIG. 4C) Col1a1 expression by Q-PCR. (FIGS. 4D-4E) LV fractional shortening and ejection fraction were quantified by ECHO. (FIG. 4F) The outline of cardiomyocytes was identified by wheat germ agglutinin (WGA-green) staining with (FIG. 4G) mean myocyte area digitally quantified. (FIG. 4H) Mean weight (mg) of LV normalized to tibia length (mm).
# (FIG. 5A) Photomicrographs of CD11 b+monocytes/macrophages and CD4+ T cells in Sham vs TAC in mice treated with vehicle or PZ-128 as in FIGS. 4A-4H, with CD11 b staining area quantified in FIG. 5B and T cells quantified in FIG. 5C.
# TAC vs Sham mice were treated for 7 weeks with vehicle or PZ-128, and cardiac fibrosis and LV hypertrophy indices measured. […] This may indicate that unlike upstream thrombin (Dong et al., Thromb. Res. 159:58-64, 2017) or factor Xa (Yurista et al., Cardiovasc. Drugs Ther. 35(5):953-963, 2021) blockade, inhibition of PAR1 may effectively suppress cardiac hypertrophy by reducing the total ventricular mass, potentially by reducing MMP1-PAR1 driven fibrosis/remodeling and cardiac fibroblast expansion.
# To obtain additional data to support PAR1 as a potentially important contributor to HF pathogenesis via inflammation, we investigated the effect of PZ-128 on monocyte/macrophage and CD4+ T cells in the 7-week TAC LV pressure overload model. As shown in FIGS. 5A-5B, there was a marked amount of CD11 b+monocytes/macrophages in the cardiac tissue from the TAC animals which was suppressed by nearly 90% by PZ-128 treatment.
# PAR1 [2] = settings: cited from earlier work
# PAR1 [3] = biological target: T1, PAR1; assay: myocardial ischemia (30 min left coronary artery occlusion) / 2 h reperfusion in mice; format: in vivo; settings: 10 mg/kg sc before ischemia
# Method: FIGS. 1A-E show protection against cardiac myocardial injury by PZ-128 in mice. […] Images were quantified using ImageJ and adjusted by weight of each cardiac slice. Data are shown as mean±SD and analyzed by two-tailed Student's t-test: **p<0.01, ***p<0.001.
# A role of PAR1 in directly mediating cardiac ischemic myonecrosis—independent of established platelet-dependent effects (Strande et al., Basic Res. Cardiol. 102(4):350-358, 2007)—was also examined. […] Mice (n=7) were treated with vehicle or 10 mg/kg PZ-128 (subcutaneous; sc) just prior to ischemic injury. As shown in FIG. 1a-d, PZ-128-treated mice had 51-62% reductions in mean cardiac Infarct Area (p<0.01), Area At Risk (p<0.01), and Total Ischemic Area (p<0.0001) compared to vehicle-treated mice. […] Using echocardiography after 3 days of reperfusion, there was a significant increase in left ventricular mass (p<0.05) in vehicle compared to PZ-128 treated cohorts, with no difference in left ventricular mass between baseline and 3 days in the PZ-128 cohort (FIG. 2). […] Previous pharmacokinetic studies of subcutaneously administered PZ-128 in mice were the basis of this 10 mg/kg dose in mice (Cisowski et al., Am. J. Pathol. 179(1):513-523, 2011), selected to match the 0.3-0.5 mg/kg doses administered in humans.
# Eight-week male C57BL/6N mice were vehicle (20% DMSO) or 10 mg/kg PZ-128 1 h before cardiac surgery (n=7 per group). The left coronary artery was occluded for 30 min with a ligature left in place during reperfusion. Blood flow was restored for 2 h, then the left coronary artery was reoccluded, and 5% Evans blue dye was injected via the aorta. Hearts were frozen and sectioned in OTC, before incubation in TTC for 10 min at 37° C. (a) Sections were digitally scanned and the area of white (b—Infarct area=1), red (c—Area at Risk=AAR), white+red (d—total Ischemic area), and blue (e—Reperfusion area=R) quantified using ImageJ and adjusted by weight of each cardiac slice. Data are shown as mean±SD and analyzed by two-tailed Student's t-test: **p<0.01, ***p<0.001.
# [4] = 7 weeks, Q-PCR relative to GAPDH mRNA, preliminary
structure (smiles),measurement,setting,value
"CCCCCCCCCCCCCCCC(=O)N[C@@H](CCCCN)C(=O)N[C@@H](CCCCN)C(=O)N[C@@H](CO)C(=O)N[C@@H](CCCNC(=N)N)C(=O)N[C@@H](C)C(=O)N[C@@H](CC(C)C)C(=O)N[C@@H](Cc1ccccc1)C(N)=O [PZ-128, Palmitate-KKSRALF-NH2] (Palmitoyl-KKSRALF-NH2)",LV mass (adjusted for tibia length),PAR1 [1]; 10 mg/kg sc daily for 7 weeks,highly significant protective effect
same,TAC-induced loss in ejection fraction by ECHO,PAR1 [1]; 10 mg/kg sc daily for 7 weeks,significant protective effects
same,TAC-induced loss in fractional shortening by ECHO,PAR1 [1]; 10 mg/kg sc daily for 7 weeks,significant protective effects
same,interstitial collagen (cardiac fibrosis) relative to vehicle,PAR1 [1]; 10 mg/kg sc daily for 7 weeks,dramatic anti-fibrotic effects
same,suppression of the increase in mean myocyte cross-sectional area,PAR1 [1]; 10 mg/kg sc daily for 7 weeks,no effect
same,Col1A1 expression relative to vehicle,"PAR1 [1]; 10 mg/kg sc daily for 7 weeks, Q-PCR",dramatic anti-fibrotic effects
same,suppression of CD11b+ monocytes/macrophages in cardiac tissue,PAR1 [1]; 7 weeks,~90%
same,CTGF gene expression,PAR1 [1]; [4],reduces expression
same,Cyr61 gene expression,PAR1 [1]; [4],reduces expression
same,IL-6 gene expression,PAR1 [1]; [4],reduces expression
same,TGFβ gene expression,PAR1 [1]; [4],reduces expression
same,TNFα gene expression,PAR1 [1]; [4],reduces expression
same,T cell infiltration (CD4+),"PAR1 [1]; 7 weeks, vehicle mice significant increases",non-significant increases
same,mode of action at PAR1,PAR1 [2],full PAR1 antagonists
same,reduction in mean Total Ischemic Area vs vehicle,"PAR1 [3]; n=7, p<0.0001",51-62%
same,increase in total area of cardiac muscle able to be reperfused vs vehicle,"PAR1 [3]; n=7, p<0.001",50%
same,reduction in mean Area At Risk vs vehicle,"PAR1 [3]; n=7, p<0.01",51-62%
same,reduction in mean cardiac Infarct Area vs vehicle,"PAR1 [3]; n=7, p<0.01",51-62%
